Where a SMILES comes first, the peptide text is derived from it.
Key:
[1] = Solubility screening of the composition (visual precipitates or turbidity); type: physicochemical; details: for Solubility of the composition, 0.50%: nitrogen compound 0.50 wt/vol % with 1.0 wt/vol % α methyl-D glucoside in medium; for Solubility of the composition, 1.00%: nitrogen compound 1.00 wt/vol % with 1.0 wt/vol % α methyl-D glucoside in medium
From the text: Each composition in Table 1 went through initial screening measures of solubility and initial pH (“I pH”). […] When a specific concentration of a nitrogen containing compound was insoluble, the initial and final pH (“F pH”) of the combined composition was not measured and accordingly are each marked as “NM.” Additionally, initial pH of the composition was checked as a screening measure. The initial pH was marked as either Low (“L”), High (“H”), or Pass (“P”). A Low initial pH corresponds to an initial pH being less than 5.5, a High initial pH corresponds to an initial pH being greater than 6.5, and a Pass initial pH corresponds to the pH being at or between 5.5-6.5. […] As part of the Therapeutic Effect Protocol, a final pH was also measured after the compositions that were tested against the Lactobacillus and E. coli.
All of the ingredients in Table 2 were combined and the pH was adjusted to 6.5. […] To evaluate the effect of various nitrogen containing therapeutic agents on the growth of bacteria, the LAPT-g media, prepared as described above, was supplemented with various nitrogen containing compound therapeutic agents to a final test concentration between 0.1 and 1.0%. As initial screening measures, solubility and initial pH of each composition were checked. If a specific composition was insoluble (as detected by visual indication of precipitates or turbidity), then no further therapeutic efficacy testing was undertaken on that composition. Additionally, if the initial pH of the composition was below 5.5 (“Low”) or was above 6.5 (“High”), then no further therapeutic efficacy testing was undertaken on that composition.

L. crispatus and E. coli = experiment: Therapeutic Effect Protocol: L. crispatus / E. coli co-culture, ratio after 36 hours; type: cell-based, Lactobacillus crispatus; E. coli; details: for Therapeutic Efficacy Results (Lactobacillus/E. coli) 0.10%: nitrogen compound 0.10 wt/vol % with 1.0 wt/vol % α methyl-D glucoside (10:1); for Therapeutic Efficacy Results (Lactobacillus/E. coli) 0.10% / Therapeutic Efficacy Results (Lactobacillus/E. coli) 0.50% / Therapeutic Efficacy Results (Lactobacillus/E. coli) 1.00%: 36 hours anaerobic co-culture, 37° C.; for Therapeutic Efficacy Results (Lactobacillus/E. coli) 0.50%: nitrogen compound 0.50 wt/vol % with 1.0 wt/vol % α methyl-D glucoside (2:1); for Therapeutic effect when ratio α methyl-D glucoside : nitrogen compound is at least about 2:1, but not at 1:1 / Therapeutic effect when ratio α methyl-D glucoside : nitrogen compound is less than 2:1 (1:1) / Therapeutic effect at ratio 2:1 and 10:1, but not at 1:1 / Therapeutic effect (ratio of Lactobacillus to E. coli greater than 2) at each concentration tested: with α methyl-D glucoside; for Therapeutic effect when ratio α methyl-D glucoside : nitrogen compound is at least about 2:1, but not at 1:1: ratio at least about 2:1, not 1:1; for Therapeutic Efficacy Results (Lactobacillus/E. coli) 1.00%: nitrogen compound 1.00 wt/vol % with 1.0 wt/vol % α methyl-D glucoside (1:1); for Therapeutic effect when ratio α methyl-D glucoside : nitrogen compound is less than 2:1 (1:1): ratio 1:1; for Therapeutic effect at ratio 2:1 and 10:1, but not at 1:1: ratios 2:1 and 10:1, not 1:1; for Therapeutic effect (ratio of Lactobacillus to E. coli greater than 2) at each concentration tested: nitrogen compound 1 wt/vol %, 0.5 wt/vol % and 0.1 wt/vol %
In short: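 L. crispatus and E. coli were mixed 1,000:1 (10^5-10^6 and 100-1,000 CFU per 5 mL tube) in LAPT-g medium at pH 6.5, containing 1% α-methyl-D-glucoside plus nitrogen compound at 0.1-1% w/v, in duplicate. After 36 h anaerobic incubation at 37 °C, each species was counted by selective plating (MRS anaerobic, TSA aerobic), and the L. crispatus:E. coli ratio and final pH were recorded.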

[2] = Initial pH screening of the composition; type: physicochemical; details: for I pH (initial pH), 0.10%: nitrogen compound 0.10 wt/vol % with 1.0 wt/vol % α methyl-D glucoside in medium; for I pH (initial pH), 0.50%: nitrogen compound 0.50 wt/vol % with 1.0 wt/vol % α methyl-D glucoside in medium; for I pH (initial pH), 1.00%: nitrogen compound 1.00 wt/vol % with 1.0 wt/vol % α methyl-D glucoside in medium
In short: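 Compounds were added to LAPT-g medium (pH adjusted to 6.5) at a final 0.1-1.0%. Solubility was judged visually by precipitate or turbidity, and insoluble compositions got no pH measurement. Initial pH was scored Low (<5.5), High (>6.5) or Pass (5.5-6.5), and only soluble Pass compositions went on to efficacy testing.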

Compound | Solubility of the composition, 0.10% ([1]; nitrogen compound 0.10 wt/vol % with 1.0 wt/vol % α methyl-D glucoside in medium) | Solubility of the composition, 0.50% [1] | Solubility of the composition, 1.00% [1] | Therapeutic Efficacy Results (Lactobacillus/E. coli) 0.10% (L. crispatus and E. coli) | Therapeutic Efficacy Results (Lactobacillus/E. coli) 0.50% (L. crispatus and E. coli) | Therapeutic effect when ratio α methyl-D glucoside : nitrogen compound is at least about 2:1, but not at 1:1 (L. crispatus and E. coli) | I pH (initial pH), 0.10% [2] | I pH (initial pH), 0.50% [2] | Therapeutic Efficacy Results (Lactobacillus/E. coli) 1.00% (L. crispatus and E. coli) | Therapeutic effect when ratio α methyl-D glucoside : nitrogen compound is less than 2:1 (1:1) (L. crispatus and E. coli) | I pH (initial pH), 1.00% [2] | Therapeutic effect at ratio 2:1 and 10:1, but not at 1:1 (L. crispatus and E. coli) | Therapeutic effect (ratio of Lactobacillus to E. coli greater than 2) at each concentration tested (L. crispatus and E. coli)
Nc1ncnc2nc[nH]c12 [Adenine] | Insol. | Insol. | Insol. |  |  |  |  |  |  |  |  |  | 
Nc1ncnc2c1ncn2[C@@H]1O[C@H](CO)[C@@H](O)[C@H]1O [Adenosine] |  |  | Insol. | <100 | 0.97 | provided a therapeutic effect | P (a Pass initial pH corresponds to the pH being at or between 5.5-6.5) | P (a Pass initial pH corresponds to the pH being at or between 5.5-6.5) |  |  |  |  | 
NC(=O)NC1NC(=O)NC1=O (stereo not drawn) [Allantoin] |  |  | Insol. | 0.9 | 1.37 |  | P (a Pass initial pH corresponds to the pH being at or between 5.5-6.5) | P (a Pass initial pH corresponds to the pH being at or between 5.5-6.5) |  |  |  |  | 
NC(=O)C[C@H](N)C(=O)O [L-Asparagine] |  |  | Insol. | 1.12 | 1.72 |  | P (a Pass initial pH corresponds to the pH being at or between 5.5-6.5) | P (a Pass initial pH corresponds to the pH being at or between 5.5-6.5) |  |  |  |  | 
N[C@@H](Cc1c[nH]cn1)C(=O)O [L-Histidine] |  | Insol. | Insol. | 1.11 |  |  | P (a Pass initial pH corresponds to the pH being at or between 5.5-6.5) |  |  |  |  |  | 
Cl.NCCC[C@H](N)C(=O)O [L-Ornthine] |  |  |  | 1.31 | 1.24 |  | P (a Pass initial pH corresponds to the pH being at or between 5.5-6.5) | P (a Pass initial pH corresponds to the pH being at or between 5.5-6.5) | 3.97 | provided a therapeutic effect | P (a Pass initial pH corresponds to the pH being at or between 5.5-6.5) |  | 
N[C@@H](CO)C(=O)O [L-Serine] |  |  |  | 393 | >299 | provided a therapeutic effect | P (a Pass initial pH corresponds to the pH being at or between 5.5-6.5) | P (a Pass initial pH corresponds to the pH being at or between 5.5-6.5) | 0.45 |  | P (a Pass initial pH corresponds to the pH being at or between 5.5-6.5) | provided a therapeutic effect | 
C[C@@H](O)[C@H](N)C(=O)O [L-Threonine] |  |  |  | 0.74 | 1.13 |  | P (a Pass initial pH corresponds to the pH being at or between 5.5-6.5) | P (a Pass initial pH corresponds to the pH being at or between 5.5-6.5) | 0.36 |  | P (a Pass initial pH corresponds to the pH being at or between 5.5-6.5) |  | 
N[C@@H](Cc1ccc(O)cc1)C(=O)O [L-Tyrosine] |  |  |  | 2.72 |  |  | P (a Pass initial pH corresponds to the pH being at or between 5.5-6.5) |  |  |  |  |  | 
CC(C)[C@H](N)C(=O)O [L-Valine] |  |  |  | 1.34 | 0.38 |  | P (a Pass initial pH corresponds to the pH being at or between 5.5-6.5) | P (a Pass initial pH corresponds to the pH being at or between 5.5-6.5) | 1.01 |  | P (a Pass initial pH corresponds to the pH being at or between 5.5-6.5) |  | 
CSCC[C@H](N)C(=O)N[C@@H](C)C(=O)O [Met-Ala] (H-Met-Ala-OH) |  |  |  | 7.33 |  | provided a therapeutic effect | P (a Pass initial pH corresponds to the pH being at or between 5.5-6.5) | L (A Low initial pH corresponds to an initial pH being less than 5.5) |  |  | L (A Low initial pH corresponds to an initial pH being less than 5.5) |  | 
CNCCc1ccccc1.Cl [Methyl(2-phenylethyl)amine Hydrochloride] |  |  |  | 10 | <1.00 | provided a therapeutic effect | P (a Pass initial pH corresponds to the pH being at or between 5.5-6.5) | P (a Pass initial pH corresponds to the pH being at or between 5.5-6.5) | 3 | provided a therapeutic effect | P (a Pass initial pH corresponds to the pH being at or between 5.5-6.5) |  | 
CC(=O)N[C@H]1C(O)O[C@H](CO)[C@H](O)[C@@H]1O (stereo partly drawn) [N-Acetyl-D-Galactosamine] |  |  |  | 130 | >100 | provided a therapeutic effect | P (a Pass initial pH corresponds to the pH being at or between 5.5-6.5) | P (a Pass initial pH corresponds to the pH being at or between 5.5-6.5) | 0.65 |  | P (a Pass initial pH corresponds to the pH being at or between 5.5-6.5) | provided a therapeutic effect | 
CC(=O)N[C@H]1C(O)O[C@H](CO)[C@@H](O)[C@@H]1O (stereo partly drawn) [N-Acetyl-D-Glucosamine] |  |  |  | 8.33 | 211 |  | P (a Pass initial pH corresponds to the pH being at or between 5.5-6.5) | P (a Pass initial pH corresponds to the pH being at or between 5.5-6.5) | 7.00E+06 | provided a therapeutic effect | P (a Pass initial pH corresponds to the pH being at or between 5.5-6.5) |  | provided a therapeutic effect
CC(=O)N[C@@H]1C(O)O[C@H](CO)[C@@H](O)[C@@H]1O (stereo partly drawn) [N-Acetyl-D-Mannosamine] |  |  |  | 0.854 | 100 | provided a therapeutic effect | P (a Pass initial pH corresponds to the pH being at or between 5.5-6.5) | P (a Pass initial pH corresponds to the pH being at or between 5.5-6.5) | 0.02 |  | P (a Pass initial pH corresponds to the pH being at or between 5.5-6.5) |  | 
c1cncnc1 [Pyrimidine] |  |  |  | 245 | >4760 |  | P (a Pass initial pH corresponds to the pH being at or between 5.5-6.5) | P (a Pass initial pH corresponds to the pH being at or between 5.5-6.5) | 4.05 | provided a therapeutic effect | P (a Pass initial pH corresponds to the pH being at or between 5.5-6.5) |  | provided a therapeutic effect

Source: US12029748B2, “Synergistic composition for maintenance of healthy balance of microflora” (KIMBERLY-CLARK WORLDWIDE, INC., priority 2017, dated 2024)
